Key:
[1] = Unbound clearance in human hepatocytes; format: ADME, cell-based, Hepatocyte
Gamma-secretase = assay: (§1) Modulation of gamma-secretase in human H4 cells expressing human wild type APP751 assessed as reduction in amyloid beta42 level incubated overnight by ELISA; format: cell-based
Mus musculus = assay: In vivo modulation of gamma secretase in mouse assessed as reduction in Abeta42 levels in brain at 30 mg/kg, po measured after 6 hrs relative to control; format: functional; set-up: scale not given: the % may be the effect or the level left
[2] = Ratio of free drug concentration in rat brain to EC90 for modulation of gamma secretase in human H4 cells expressing human wild type APP751 assessed as reduction in amyloid beta42 level incubated overnight by ELISA; format: ADME, cell-based
Rattus norvegicus [3] = assay: In vivo modulation of gamma secretase in rat assessed as reduction in Abeta42 levels in CSF at 30 mg/kg, po measured after 6 hrs by ELISA relative to control; format: functional, Cerebrospinal fluid; set-up: scale not given: the % may be the effect or the level left
Rattus norvegicus [4] = assay: In vivo modulation of gamma secretase in rat assessed as reduction in Abeta42 levels in brain at 30 mg/kg, po measured after 6 hrs by ELISA relative to control; format: functional; set-up: scale not given: the % may be the effect or the level left
[5] = Ratio of free drug concentration in mouse brain to EC90 for modulation of gamma secretase in human H4 cells expressing human wild type APP751 assessed as reduction in amyloid beta42 level incubated overnight by ELISA; format: ADME, cell-based
[6] = target: Gamma-secretase (Homo sapiens) (UniProt Q96BI3+Q9NZ42+Q8WW43+P49768+Q92542+P49810); assay: as §1; format: cell-based; conditions: filed as modulator

Row | SMILES | CL free [1] | EC50 (Gamma-secretase) | Ratio [2] | Ratio [5] | EC90 [6] | Activity (Mus musculus) | Activity (Rattus norvegicus [3]) | Activity (Rattus norvegicus [4])
1 | COc1nc(C2=NOCC(c3ccc(C(F)(F)F)c(F)c3)N2)ccc1-n1cnc(C)c1 (stereo not given) | 62 mL/min/kg | 21 nM | – | – | – | – | – | –
2 | COc1nc(C2=NOCC(c3ccc(C(F)(F)F)cc3)N2)ccc1-n1cnc(C)c1 (stereo not given) | 12 mL/min/kg | 34 nM | – | 1.1 | 407 nM | 36% | – | –
3 | COc1nc(C2=NOCC(c3ccc(C)c(Cl)c3)N2)ccc1-n1cnc(C)c1 (stereo not given) | 422 mL/min/kg | 14 nM | – | – | – | – | – | –
4 | COc1nc(C2=NOC(C)C(c3ccc(Cl)cc3)N2)ccc1-n1cnc(C)c1 (stereo not given) | 12 mL/min/kg | 16 nM | 0.3 | 4.5 | 187 nM | 47% | 84% | 41%
5 | COc1nc(C2=NOCC(c3ccccc3)N2)ccc1-n1cnc(C)c1 (stereo in doubt; 7) | – | 2000 nM | – | – | – | – | – | –
6 | COc1nc(C2=NOCC(c3ccc(Cl)c(F)c3)N2)ccc1-n1cnc(C)c1 (stereo not given) | 32 mL/min/kg | 23 nM | – | 1.7 | 246 nM | 28% | – | –
7 | COc1nc(C2=NOCC(c3ccc(C)cc3)N2)ccc1-n1cnc(C)c1 (stereo not given) | 135 mL/min/kg | 74 nM | – | – | – | – | – | –
8 | COc1nc(C2=NOCC(c3ccc(Cl)cc3)N2)ccc1-n1cnc(C)c1 (stereo not given) | 2 mL/min/kg | 37 nM | – | 0.6 | 389 nM | 26% | – | –
9 | COc1nc(C2=NOCC(c3ccc(F)c(Cl)c3)N2)ccc1-n1cnc(C)c1 (stereo not given) | 13 mL/min/kg | 23 nM | – | 1.5 | 278 nM | 30% | – | –
10 | COc1nc(C2=NOCC(c3ccc(C4CC4)cc3)N2)ccc1-n1cnc(C)c1 (stereo not given) | 208 mL/min/kg | 39 nM | – | – | – | – | – | –
11 | COc1nc(C2=NOC(C)C(c3ccc(Cl)c(Cl)c3)N2)ccc1-n1cnc(C)c1 (stereo not given) | 20 mL/min/kg | 5 nM | – | – | – | – | – | –
12 | COc1nc(C2=NOCC(c3ccc(C#N)cc3)N2)ccc1-n1cnc(C)c1 (stereo not given) | – | 450 nM | – | – | – | – | – | –
13 | COc1nc(C2=NOCC(c3ccc(Cl)c(C)c3)N2)ccc1-n1cnc(C)c1 (stereo not given) | 70 mL/min/kg | 10 nM | – | 1.3 | 127 nM | 30% | – | –
14 | COc1nc(C2=NOC[C@H](c3cc4ccccc4o3)N2)ccc1-n1cnc(C)c1 | 51 mL/min/kg | 35 nM | 0.7 | 1.1 | 383 nM | 43% | 58% | 30%
15 | COc1nc(C2=NOCC(c3cccc(C#N)c3)N2)ccc1-n1cnc(C)c1 (stereo not given) | – | 214 nM | – | – | – | – | – | –
16 | COc1nc(C2=NOCC(c3ccc(C(C)(C)C)cc3)N2)ccc1-n1cnc(C)c1 (stereo not given) | 320 mL/min/kg | 10 nM | – | – | – | – | – | –
17 | COc1nc(C2=NOCC(c3cccc(Cl)c3)N2)ccc1-n1cnc(C)c1 (stereo not given) | 15 mL/min/kg | 26 nM | – | – | – | – | – | –

The remaining compounds from weak to strong by EC50 (Gamma-secretase), led by results:

Row | CL free [1] | EC50 (Gamma-secretase) | Ratio [2] | Ratio [5] | EC90 [6] | SMILES | Activity (Mus musculus) | Activity (Rattus norvegicus [3]) | Activity (Rattus norvegicus [4])
18 | – | 197 nM | – | – | – | COc1cccc(C2CON=C(c3ccc(-n4cnc(C)c4)c(OC)n3)N2)c1 (stereo not given) | – | – | –
19 | – | 97 nM | – | – | – | COc1ccc(C2CON=C(c3ccc(-n4cnc(C)c4)c(OC)n3)N2)cc1 (stereo not given) | – | – | –
20 | 21 mL/min/kg | 97 nM | – | – | – | COc1nc(C2=NOCC(c3ccccc3)N2)ccc1-n1cnc(C)c1 (stereo in doubt; 7a) | – | – | –
21 | 5 mL/min/kg | 75 nM | – | – | – | COc1nc(C2=NOC(C)(C)C(c3ccccc3)N2)ccc1-n1cnc(C)c1 (stereo not given) | – | – | –
22 | – | 60 nM | – | – | – | COc1nc(C2=NOCC(c3ccc(F)cc3)N2)ccc1-n1cnc(C)c1 (stereo not given) | – | – | –
23 | – | 43 nM | – | – | – | COc1nc(C2=NOCC(c3cccc(C(F)(F)F)c3)N2)ccc1-n1cnc(C)c1 (stereo not given) | – | – | –
24 | 15 mL/min/kg | 23 nM | – | – | – | COc1nc(C2=NOC(C)(C)C(c3ccc(Cl)cc3)N2)ccc1-n1cnc(C)c1 (stereo not given) | – | – | –
25 | 29 mL/min/kg | 23 nM | – | – | – | COc1nc(C2=NOCC(c3cccc(C4CC4)c3)N2)ccc1-n1cnc(C)c1 (stereo not given) | – | – | –
26 | – | 19 nM | – | 0.7 | 268 nM | COc1nc(C2=NOCC(c3ccc(F)c(C(F)(F)F)c3)N2)ccc1-n1cnc(C)c1 (stereo not given) | 41% | – | –
27 | 19 mL/min/kg | 14 nM | – | – | – | COc1nc(C2=NOC(C)C(c3cccc(Cl)c3)N2)ccc1-n1cnc(C)c1 (stereo not given) | – | – | –
28 | 274 mL/min/kg | 13 nM | – | – | – | COc1nc(C2=NOCC(c3ccc(Cl)c(C4CC4)c3)N2)ccc1-n1cnc(C)c1 (stereo not given) | – | – | –
29 | 1147 mL/min/kg | 13 nM | – | – | – | COc1nc(C2=NOCC(c3ccc(C4CC4)c(Cl)c3)N2)ccc1-n1cnc(C)c1 (stereo not given) | – | – | –
30 | 85 mL/min/kg | 10 nM | – | 0.8 | 104 nM | COc1nc(C2=NOCC(c3cc(Cl)cc(Cl)c3)N2)ccc1-n1cnc(C)c1 (stereo not given) | 23% | – | –
31 | – | 10 nM | – | – | – | COc1nc(C2=NOCC(c3ccc(C(F)(F)F)c(Cl)c3)N2)ccc1-n1cnc(C)c1 (stereo not given) | – | – | –
32 | – | 10 nM | – | 0.5 | 97 nM | COc1nc(C2=NOCC(c3ccc(Cl)c(Cl)c3)N2)ccc1-n1cnc(C)c1 (stereo not given) | 37% | – | –
33 | 6 mL/min/kg | 8 nM | – | – | – | COc1nc(C2=NOCC(c3ccc(Cl)c(C(F)(F)F)c3)N2)ccc1-n1cnc(C)c1 (stereo not given) | – | – | –
34 | 1 mL/min/kg | 8 nM | 2.4 | 2.6 | 97 nM | COc1nc(C2=NOC(C)C(c3ccc(Cl)c(F)c3)N2)ccc1-n1cnc(C)c1 (stereo not given) | 43% | 73% | 44%
